Measurements reported in PubChem BioAssay (NCI).
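In this assay, cells in 96-well plates receive the compound at five concentrations for 48 hours. Endpoints are linearly interpolated between the surrounding concentrations. TGI: concentration producing complete growth inhibition.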

Experiments:
Test in all cases: NCI-60 cell line screen, 48 h
MOLT-4 leukemia = test system: MOLT-4 leukemia
HCC-2998 colon = test system: HCC-2998 colon
U251 CNS = test system: U251 CNS
COLO 205 colon = test system: COLO 205 colon
MDA-MB-435 = test system: MDA-MB-435
SNB-19 CNS = test system: SNB-19 CNS
SK-MEL-2 melanoma = test system: SK-MEL-2 melanoma
UACC-62 melanoma = test system: UACC-62 melanoma
PC-3 prostate = test system: PC-3 prostate
SF-295 CNS = test system: SF-295 CNS
DU-145 prostate = test system: DU-145 prostate
HT29 colon = test system: HT29 colon

Compound	TGI (MOLT-4 leukemia) [µM]	TGI (HCC-2998 colon) [µM]	TGI (U251 CNS) [µM]	TGI (COLO 205 colon) [µM]	TGI (MDA-MB-435) [µM]	TGI (SNB-19 CNS) [µM]	TGI (SK-MEL-2 melanoma) [µM]	TGI (UACC-62 melanoma) [µM]	TGI (PC-3 prostate) [µM]	TGI (SF-295 CNS) [µM]	TGI (DU-145 prostate) [µM]	TGI (HT29 colon) [µM]
Cc1cc2c(c(C=Nc3ccc(N(C)C)cc3)c1)OC1(C=C2)Oc2ccccc2C(=O)N1C (centres undefined)	23.5	30.2	28.7	33.9	26.7	24.5	> 54.8	26.7	> 52.5	46.5	27.9	57.2
O=C(c1c(F)c(F)c(F)c(F)c1F)n1c(=O)[nH]c2ccccc21	18.7	11.6	25.5	25.7	21.9	28.2	17.5	25.5	21.8	30.6	29.6	18
CCOC(=O)C12C3CCC1C2C(=O)C3 (centres undefined)	> 100	> 100	> 100	> 100	> 100	> 100	> 100	> 100	> 100	> 100	> 100	> 100
O=S(=O)(O)c1ccc(N=Nc2c(O)ccc3ccccc23)cc1	> 100	> 100	> 100	> 100	> 100	> 100	> 100	> 100	> 100	> 100	> 100	> 100
O=C1c2scc(-c3ccc(F)cc3)c2-n2cccc21	> 100	91.1	51.9	> 100	31.4	> 100	> 100	> 100	> 100	> 100	> 100	> 100
CN(C)c1ccc(/C=C(\NC(=O)c2ccccc2)c2nc3ccccc3c(=O)o2)cc1	> 100	> 100	> 100	> 100	> 100	> 100	> 100	> 100	> 100	> 100	> 100	> 100
C[C@@H]1C(=O)O[C@@H]2C[C@@]1(C)[C@@H]1C(=O)C3(O)OC14C2(C)OC(=O)[C@@]4(O)CCC1C3C(O)C=C2CC=CC(=O)[C@@]21C (some centres undefined)	57.1	> 100	> 100	> 100	79.4	37.8	62.9	> 100	> 100	83.7	> 100	91
CC(=O)O[C@H]1CC[C@@]2(C)C(=CC[C@H]3[C@@H]4C[C@H](N5CCN(C)CC5)[C@H](OC(C)=O)[C@@]4(C)CC[C@@H]32)C1	16.8	30.1	40.5	32.8	19.2	58.9	33.3	26.4	32.5	45.7	> 100	12.8
CCOC(=O)NC(Nc1cccc(F)c1)(C(F)(F)F)C(F)(F)F	> 100	> 100	> 100	> 100	> 100	> 100	> 100	> 100	> 100	> 100	> 100	> 100
CNc1nc2c(C)ccc3nc(N(C)C)nc-3c2n1C	> 10	> 10	> 10	> 10	> 10	> 10	> 10	–	> 10	> 10	> 10	> 10
